From paper PMC9078933 (2018)

Test system: ATB1 (DNA, aptamer) ATATCTTTTCCTACTCATCTTTGAATAACTACCGGGCATTACTTTCTGGCCTCCCTGCCTCCTAAATCACCAATTAATTCGCGGCCCCCCG
Experiment: fluorescence recovery, aptamer-QD on graphene oxide
Conditions: phosphate buffer pH 7.2, 0.5% BSA, room temperature; tested concentration not stated

C[C@@H]1Cc2c(Cl)cc(C(=O)N[C@@H](Cc3ccccc3)C(=O)O)c(O)c2C(=O)O1
binding: no
